ChEMBL document CHEMBL1201862, “PubChem BioAssay data set” (2004)
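A five-concentration, 48-hour dose response in 96-well plates underlies each endpoint, interpolated linearly between surrounding concentrations. GI50 marks 50% less growth.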 Calls of active or inactive are those of the source. Rule as the data show it: active = GI50 up to about 1.1 µM and inactive = higher.

Assays:
Assay in all cases: NCI anticancer screen, dose series, 48 h
HCT-15 = test system: HCT-15
SW-620 = test system: SW-620
M14 = test system: M14
ACHN = test system: ACHN
OVCAR-5 = test system: OVCAR-5
NCI-H460 = test system: NCI-H460
SK-MEL-28 = test system: SK-MEL-28
U-251 = test system: U-251
SF-295 = test system: SF-295
LOX IMVI = test system: LOX IMVI
M19-MEL = test system: M19-MEL
SR = test system: SR
COLO 205 = test system: COLO 205
HCT-116 = test system: HCT-116
SK-MEL-2 = test system: SK-MEL-2
UO-31 = test system: UO-31
KM12 = test system: KM12
SN12C = test system: SN12C
HCC 2998 = test system: HCC 2998

Row | SMILES | GI50 (HCT-15) [µM] | GI50 (SW-620) | GI50 (M14) | GI50 (ACHN) | GI50 (OVCAR-5) | GI50 (NCI-H460) | GI50 (SK-MEL-28) | GI50 (U-251) | GI50 (SF-295) | GI50 (LOX IMVI) | GI50 (M19-MEL) | GI50 (SR) | GI50 (COLO 205) | GI50 (HCT-116) | GI50 (SK-MEL-2) | GI50 (UO-31) | GI50 (KM12) | GI50 (SN12C) | GI50 (HCC 2998)
1 | CCOC(=O)C(=C=Cc1cccs1)C(=O)c1ccccc1 | 16.6 | 18 µM (inactive) | 15 µM (inactive) | 18.8 µM (inactive) | 15.2 µM (inactive) | 20.4 µM (inactive) | 14.8 µM (inactive) | 16.9 µM (inactive) | 17.8 µM (inactive) | 12.4 µM (inactive) | 17.2 µM (inactive) | 19.9 µM (inactive) | 17.6 µM (inactive) | 14.6 µM (inactive) | 19 µM (inactive) | 14.3 µM (inactive) | 12.3 µM (inactive) | 15.8 µM (inactive) | 17.4 µM (inactive)
2 | COc1ccc(Nc2nc3c(N)cc(C(F)(F)F)cc3nc2-c2ccccc2)cc1 | > 100 | > 100 µM (inactive) | 79.6 µM (inactive) | > 100 µM (inactive) | > 100 µM (inactive) | 60.4 µM (inactive) | > 100 µM (inactive) | 83.2 µM (inactive) | 71.3 µM (inactive) | > 100 µM (inactive) | > 100 µM (inactive) | 21.9 µM (inactive) | > 100 µM (inactive) | > 100 µM (inactive) | 89.5 µM (inactive) | > 100 µM (inactive) | 83 µM (inactive) | > 100 µM (inactive) | > 100 µM (inactive)
3 | C=CCc1cc(-c2cc(CC=C)c(O)c(CNC)c2)cc(CNC)c1O | 16.6 | 17.3 µM (inactive) | 15.6 µM (inactive) | 17.8 µM (inactive) | – | 16.3 µM (inactive) | 19.5 µM (inactive) | 14.9 µM (inactive) | 16.9 µM (inactive) | 13.3 µM (inactive) | 14.2 µM (inactive) | – | 18.5 µM (inactive) | 14.7 µM (inactive) | 18.6 µM (inactive) | 12.9 µM (inactive) | 16.6 µM (inactive) | 17.1 µM (inactive) | 16.3 µM (inactive)
4 | N#CC1CC2(C(=O)C1=O)c1ccccc1-c1ccccc12 (stereo unspecified) | > 100 | > 100 µM (inactive) | > 100 µM (inactive) | > 100 µM (inactive) | > 100 µM (inactive) | > 100 µM (inactive) | > 100 µM (inactive) | > 100 µM (inactive) | > 100 µM (inactive) | > 100 µM (inactive) | > 100 µM (inactive) | > 100 µM (inactive) | > 100 µM (inactive) | > 100 µM (inactive) | > 100 µM (inactive) | > 100 µM (inactive) | > 100 µM (inactive) | > 100 µM (inactive) | > 100 µM (inactive)
5 | N#CC(C#N)=C1SCC(=O)CS1 | > 100 | > 100 µM (inactive) | > 100 µM (inactive) | – | > 100 µM (inactive) | > 100 µM (inactive) | – | > 100 µM (inactive) | > 100 µM (inactive) | > 100 µM (inactive) | > 100 µM (inactive) | > 100 µM (inactive) | > 100 µM (inactive) | > 100 µM (inactive) | – | > 100 µM (inactive) | > 100 µM (inactive) | > 100 µM (inactive) | > 100 µM (inactive)
6 | C=Cc1c(-c2ccccc2)cnc2[nH]c3ccccc3c12 | > 50 | > 50 µM (inactive) | > 50 µM (inactive) | > 50 µM (inactive) | > 50 µM (inactive) | > 50 µM (inactive) | > 50 µM (inactive) | > 50 µM (inactive) | > 50 µM (inactive) | > 50 µM (inactive) | > 50 µM (inactive) | > 50 µM (inactive) | > 50 µM (inactive) | > 50 µM (inactive) | > 50 µM (inactive) | > 50 µM (inactive) | 2.43 µM (inactive) | > 50 µM (inactive) | > 50 µM (inactive)
7 | CC(=O)Oc1ccccc1C(=O)C1c2cccc(O)c2C(=O)c2c(O)cccc21 | 1.08 | 0.445 µM (active) | 1.84 µM (inactive) | 0.771 µM (active) | 2.58 µM (inactive) | 0.433 µM (active) | 1.64 µM (inactive) | 0.494 µM (active) | 0.682 µM (active) | 1.62 µM (inactive) | 1.01 µM (active) | 0.419 µM (active) | 0.705 µM (active) | 0.897 µM (active) | 1.19 µM (inactive) | 0.741 µM (active) | 0.421 µM (active) | 2.3 µM (inactive) | 0.581 µM (active)
8 | O=C1CSC(/C(=C/c2ccccc2)c2nc3ccccc3[nH]2)=N1 | > 100 | > 100 µM (inactive) | 57 µM (inactive) | > 100 µM (inactive) | > 100 µM (inactive) | > 100 µM (inactive) | > 100 µM (inactive) | 23.3 µM (inactive) | 63.8 µM (inactive) | > 100 µM (inactive) | 65.9 µM (inactive) | 68.2 µM (inactive) | > 100 µM (inactive) | 41.7 µM (inactive) | 58.2 µM (inactive) | > 100 µM (inactive) | 32.4 µM (inactive) | 75.3 µM (inactive) | > 100 µM (inactive)
9 | CCCC(O)c1cn(-c2cccc(S(=O)(=O)O)c2)nn1 (stereo unspecified) | > 100 | > 100 µM (inactive) | > 100 µM (inactive) | > 100 µM (inactive) | > 100 µM (inactive) | > 100 µM (inactive) | > 100 µM (inactive) | > 100 µM (inactive) | > 100 µM (inactive) | > 100 µM (inactive) | > 100 µM (inactive) | – | > 100 µM (inactive) | > 100 µM (inactive) | > 100 µM (inactive) | > 100 µM (inactive) | > 100 µM (inactive) | > 100 µM (inactive) | > 100 µM (inactive)
10 | CC(C)(C)NNC(=O)/C(=C/c1ccc([N+](=O)[O-])cc1)NC(=O)c1ccccc1 | > 100 | – | > 100 µM (inactive) | > 100 µM (inactive) | > 100 µM (inactive) | 60.1 µM (inactive) | > 100 µM (inactive) | 39 µM (inactive) | > 100 µM (inactive) | 17.2 µM (inactive) | > 100 µM (inactive) | 21.6 µM (inactive) | 29 µM (inactive) | > 10 µM (inactive) | > 100 µM (inactive) | > 100 µM (inactive) | > 100 µM (inactive) | > 100 µM (inactive) | > 100 µM (inactive)
11 | C/C(=N/Nc1ccc([N+](=O)[O-])cc1[N+](=O)[O-])C(CC(C(=O)Nc1ccccc1C)/C(C)=N\Nc1ccc([N+](=O)[O-])cc1[N+](=O)[O-])C(=O)Nc1ccccc1C (stereo unspecified) | 32.9 | 18.8 µM (inactive) | 18 µM (inactive) | 19.7 µM (inactive) | 16.9 µM (inactive) | 12.5 µM (inactive) | 21.9 µM (inactive) | 6.12 µM (inactive) | 16.1 µM (inactive) | 14.4 µM (inactive) | 12.4 µM (inactive) | – | 12.8 µM (inactive) | 13.5 µM (inactive) | 13.3 µM (inactive) | 11.5 µM (inactive) | 15.3 µM (inactive) | 6 µM (inactive) | 21.6 µM (inactive)
12 | O=C(COC(=O)c1cccc2c(=O)c3ccccc3[nH]c12)Nc1ccc(Cl)cc1 | – | 85.5 µM (inactive) | 78.9 µM (inactive) | 32.8 µM (inactive) | – | 63.4 µM (inactive) | > 100 µM (inactive) | 24.9 µM (inactive) | 25.5 µM (inactive) | 23.2 µM (inactive) | > 100 µM (inactive) | 19.7 µM (inactive) | > 100 µM (inactive) | 13.6 µM (inactive) | – | 9.64 µM (inactive) | 28.9 µM (inactive) | > 100 µM (inactive) | > 100 µM (inactive)
13 | COC1(C)C(=O)N2C1N(C(=O)OC(C)(C)C)CC2(C)C (stereo unspecified) | 63.2 | 17.5 µM (inactive) | > 100 µM (inactive) | > 100 µM (inactive) | > 100 µM (inactive) | 81.3 µM (inactive) | > 100 µM (inactive) | > 100 µM (inactive) | > 100 µM (inactive) | 23.5 µM (inactive) | > 100 µM (inactive) | – | 36.5 µM (inactive) | 96.4 µM (inactive) | > 100 µM (inactive) | > 100 µM (inactive) | > 100 µM (inactive) | > 100 µM (inactive) | > 100 µM (inactive)
14 | COc1ccc(C(=O)C/C(=N/NC(N)=S)C(=O)Nc2ccccc2)cc1 | > 100 | > 100 µM (inactive) | > 100 µM (inactive) | > 100 µM (inactive) | > 100 µM (inactive) | > 100 µM (inactive) | > 100 µM (inactive) | > 100 µM (inactive) | > 100 µM (inactive) | > 100 µM (inactive) | > 100 µM (inactive) | – | > 100 µM (inactive) | > 100 µM (inactive) | > 100 µM (inactive) | > 100 µM (inactive) | > 100 µM (inactive) | > 100 µM (inactive) | > 100 µM (inactive)
15 | COC(=O)C1=C(C)C(=O)[C@H]2C(C(=O)OC)CCCC[C@@H]12 (stereo partly specified) | > 100 | > 100 µM (inactive) | > 100 µM (inactive) | > 100 µM (inactive) | > 100 µM (inactive) | > 100 µM (inactive) | > 100 µM (inactive) | > 100 µM (inactive) | > 100 µM (inactive) | – | > 100 µM (inactive) | 49.1 µM (inactive) | > 100 µM (inactive) | 83.9 µM (inactive) | > 100 µM (inactive) | > 100 µM (inactive) | > 100 µM (inactive) | > 100 µM (inactive) | > 100 µM (inactive)
